Our source for the solubility values is US20230143604A1, “QW DOSING OF GIP RECEPTOR AGONIST PEPTIDE COMPOUNDS AND USES THEREOF” (TAKEDA PHARMACEUTICAL COMPANY LIMITED, priority 2020, published 2023).

Structures are written as SMILES. Starred links: 1 amine or outer side, 2 acyl side, 3 side chain; linkers in the order of their positions; H or OH if unused. Non-standard residues stand in square brackets, D forms with d. Residues, ends and D or L forms follow the SMILES beside them. Groups on a side chain read outwards from the residue. *: point of attachment. C20 diacid = O=C(O)CCCCCCCCCCCCCCCCCCC(=O)*; C18 diacid = O=C(O)CCCCCCCCCCCCCCCCC(=O)*; C17 diacid = O=C(O)CCCCCCCCCCCCCCCC(=O)*; γGlu = O=C(O)[C@H](CCC(=O)[*:2])N[*:1]; NMeY = CN[C@@H](Cc1ccc(O)cc1)C(=O)O; AEEA = NCCOCCOCC(=O)O; Aib = CC(C)(N)C(=O)O

The nature of the data set: physchem. The essentials:
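3 mg of peptide treated with 100 μL portions of 200 mM phosphate buffer pH 7.4, sonicating/vortexing up to 1 min, with further buffer added until fully dissolved. Solubility then quantified by HPLC.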

For `CC[C@H](C)[C@H](NC(=O)[C@H](CCCCN)NC(=O)[C@H](CC(=O)O)NC(=O)[C@H](CC(C)C)NC(=O)[C@H](C)NC(=O)[C@@H](NC(=O)[C@H](CO)NC(=O)[C@H](Cc1ccc(O)cc1)NC(=O)[C@H](CC(=O)O)NC(=O)[C@H](CO)NC(=O)[C@@H](NC(=O)[C@H](Cc1ccccc1)NC(=O)[C@@H](NC(=O)CNC(=O)[C@H](CCC(=O)O)NC(=O)C(C)(C)NC(=O)[C@@H](N)Cc1ccc(O)cc1)[C@@H](C)O)[C@@H](C)CC)[C@@H](C)CC)C(=O)N[C@@H](C)C(=O)N[C@@H](CCC(N)=O)C(=O)NC(C)(C)C(=O)N[C@@H](CCCCNC(=O)COCCOCCNC(=O)COCCOCCNC(=O)CC[C@H](NC(=O)CC[C@H](NC(=O)CCCCCCCCCCCCCCCCC(=O)O)C(=O)O)C(=O)O)C(=O)N[C@@H](Cc1ccccc1)C(=O)N[C@H](C(=O)N[C@@H](CCC(=O)O)C(=O)N[C@@H](Cc1c[nH]c2ccccc12)C(=O)N[C@@H](CC(C)C)C(=O)N[C@@H](CC(C)C)C(=O)N[C@@H](C)C(=O)N[C@@H](CCC(N)=O)C(=O)N[C@@H](CCCNC(=N)N)C(=O)NCC(=O)O)C(C)C` [Compound 153] (H-Y[Aib]EGTFISDYSIALDKIAQ[Aib]K([AEEA-AEEA-γGlu-γGlu-C18 diacid])FVEWLLAQRG-OH), the solubility runs as follows: (pH 7.4) not below 15 mg/mL; (pH 7.4, aqueous buffer) not below 30 mg/mL.

Turning to `CC[C@H](C)[C@H](NC(=O)[C@H](CO)NC(=O)[C@H](Cc1ccc(O)cc1)NC(=O)[C@H](CC(=O)O)NC(=O)[C@H](CO)NC(=O)[C@@H](NC(=O)[C@H](Cc1ccccc1)NC(=O)[C@@H](NC(=O)CNC(=O)[C@H](CCC(=O)O)NC(=O)C(C)(C)NC(=O)[C@@H](N)Cc1ccc(O)cc1)[C@@H](C)O)[C@@H](C)CC)C(=O)N[C@@H](C)C(=O)N[C@@H](CC(C)C)C(=O)N[C@@H](CC(=O)O)C(=O)N[C@@H](CCCNC(=N)N)C(=O)N[C@H](C(=O)N[C@@H](Cc1c[nH]cn1)C(=O)N[C@@H](CCC(N)=O)C(=O)N[C@@H](CCC(N)=O)C(=O)N[C@@H](CC(N)=O)C(=O)N[C@@H](Cc1ccccc1)C(=O)N[C@H](C(=O)N[C@@H](CC(N)=O)C(=O)N[C@@H](Cc1c[nH]c2ccccc12)C(=O)N[C@@H](CC(C)C)C(=O)N[C@@H](CC(C)C)C(=O)N[C@@H](C)C(=O)N[C@@H](CCC(N)=O)C(=O)N[C@@H](CCCCNC(=O)COCCOCCNC(=O)COCCOCCNC(=O)CC[C@H](NC(=O)CCCCCCCCCCCCCCCCC(=O)O)C(=O)O)C(=O)O)C(C)C)[C@@H](C)CC` [Compound 249] (H-Y[Aib]EGTFISDYSIALDRIHQQNFVNWLLAQK([AEEA-AEEA-γGlu-C18 diacid])-OH; N-terminus and C-terminus assumed), for the setting “pH 7.4, aqueous buffer”, the solubility was not below 6.8 mg/mL.

In turn, `CC[C@H](C)[C@H](NC(=O)[C@H](CO)NC(=O)[C@H](Cc1ccc(O)cc1)NC(=O)[C@H](CC(=O)O)NC(=O)[C@H](CO)NC(=O)[C@@H](NC(=O)[C@H](Cc1ccccc1)NC(=O)[C@@H](NC(=O)CNC(=O)[C@H](CCC(=O)O)NC(=O)C(C)(C)NC(=O)[C@H](Cc1ccc(O)cc1)NC)[C@@H](C)O)[C@@H](C)CC)C(=O)N[C@@H](C)C(=O)N[C@@H](CC(C)C)C(=O)N[C@@H](CC(=O)O)C(=O)N[C@@H](CO)C(=O)N[C@@H](CCCCNC(=O)CNC(=O)CNC(=O)CNC(=O)CNC(=O)CNC(=O)CCCCCCCCCCCCCCCCC(=O)O)C(=O)N[C@@H](C)C(=O)N[C@@H](CCC(N)=O)C(=O)NC(C)(C)C(=O)N[C@@H](CC(=O)O)C(=O)N[C@@H](Cc1ccccc1)C(=O)N[C@H](C(=O)N[C@@H](CC(N)=O)C(=O)N[C@@H](Cc1c[nH]c2ccccc12)C(=O)N[C@@H](CC(C)C)C(=O)N[C@@H](CC(C)C)C(=O)N[C@@H](C)C(=O)N[C@@H](CCC(N)=O)C(=O)N[C@@H](CCCCN)C(=O)NCC(=O)O)C(C)C` [Compound 78] returned a solubility (pH 7.4) not below 15 mg/mL and a solubility (pH 7.4, aqueous buffer) not below 30 mg/mL.

`CC[C@H](C)[C@H](NC(=O)[C@H](CO)NC(=O)[C@H](Cc1ccc(O)cc1)NC(=O)[C@H](CC(=O)O)NC(=O)[C@H](CO)NC(=O)[C@@H](NC(=O)[C@H](Cc1ccccc1)NC(=O)[C@@H](NC(=O)CNC(=O)[C@H](CCC(=O)O)NC(=O)C(C)(C)NC(=O)[C@H](Cc1ccc(O)cc1)NC)[C@@H](C)O)[C@@H](C)CC)C(=O)N[C@@H](C)C(=O)N[C@@H](CC(C)C)C(=O)N[C@@H](CC(=O)O)C(=O)N[C@@H](CCCNC(=N)N)C(=O)NC(C)(C)C(=O)N[C@@H](C)C(=O)N[C@@H](CCC(N)=O)C(=O)NC(C)(C)C(=O)N[C@@H](CCCCNC(=O)COCCOCCNC(=O)COCCOCCNC(=O)CC[C@H](NC(=O)CC[C@H](NC(=O)CCCCCCCCCCCCCCCCCCC(=O)O)C(=O)O)C(=O)O)C(=O)N[C@@H](Cc1ccccc1)C(=O)N[C@H](C(=O)N[C@@H](CC(N)=O)C(=O)N[C@@H](Cc1c[nH]c2ccccc12)C(=O)N[C@@H](CC(C)C)C(=O)N[C@@H](CC(C)C)C(=O)N[C@@H](C)C(=O)N[C@@H](CCC(N)=O)C(=O)N[C@@H](CCCNC(=N)N)C(N)=O)C(C)C` [Compound 272] (H-[NMeY][Aib]EGTFISDYSIALDR[Aib]AQ[Aib]K([AEEA-AEEA-γGlu-γGlu-C20 diacid])FVNWLLAQR-NH2): the solubility (pH 7.4, aqueous buffer) is not below 7.5 mg/mL.

For `CC[C@H](C)[C@H](NC(=O)[C@H](CO)NC(=O)[C@H](Cc1ccc(O)cc1)NC(=O)[C@H](CC(=O)O)NC(=O)[C@H](CO)NC(=O)[C@@H](NC(=O)[C@H](Cc1ccccc1)NC(=O)[C@@H](NC(=O)CNC(=O)[C@H](CCC(=O)O)NC(=O)C(C)(C)NC(=O)[C@H](Cc1ccc(O)cc1)NC)[C@@H](C)O)[C@@H](C)CC)C(=O)N[C@@H](C)C(=O)N[C@@H](CC(C)C)C(=O)N[C@@H](CC(=O)O)C(=O)N[C@@H](CCCNC(=N)N)C(=O)NC(C)(C)C(=O)N[C@@H](CCCCNC(=O)COCCOCCNC(=O)COCCOCCNC(=O)CC[C@H](NC(=O)CCCCCCCCCCCCCCCC(=O)O)C(=O)O)C(=O)N[C@@H](CCC(N)=O)C(=O)NC(C)(C)C(=O)N[C@@H](CC(N)=O)C(=O)N[C@@H](Cc1ccccc1)C(=O)N[C@H](C(=O)N[C@@H](CC(N)=O)C(=O)N[C@@H](Cc1c[nH]c2ccccc12)C(=O)N[C@@H](CC(C)C)C(=O)N[C@@H](CC(C)C)C(=O)N[C@@H](C)C(=O)N[C@@H](CCC(N)=O)C(=O)N[C@@H](CO)C(=O)N1CCC[C@H]1C(=O)N[C@@H](CO)C(=O)N[C@@H](CO)C(=O)NCC(=O)N[C@@H](C)C(=O)N1CCC[C@H]1C(=O)N1CCC[C@H]1C(=O)N1CCC[C@H]1C(=O)N[C@@H](CO)C(N)=O)C(C)C` [Compound 268] (H-[NMeY][Aib]EGTFISDYSIALDR[Aib]K([AEEA-AEEA-γGlu-C17 diacid])Q[Aib]NFVNWLLAQSPSSGAPPPS-NH2), the solubility (pH 7.4, aqueous buffer, pH 7.4 Phosphate Buffer - Solubility, 200 mM Phosphate buffer pH 7.4) is not below 10 mg/mL.

In turn, `CC[C@H](C)[C@H](NC(=O)[C@H](Cc1ccccc1)NC(=O)[C@@H](NC(=O)CNC(=O)[C@H](CCC(=O)O)NC(=O)C(C)(C)NC(=O)[C@H](Cc1ccc(O)cc1)NC)[C@@H](C)O)C(=O)N[C@@H](CO)C(=O)N[C@@H](CC(=O)O)C(=O)N[C@@H](Cc1ccc(O)cc1)C(=O)N[C@@H](CO)C(=O)N[C@H](C(=O)NC(C)(C)C(=O)N[C@@H](CC(C)C)C(=O)N[C@@H](CC(=O)O)C(=O)N[C@@H](CCCNC(=N)N)C(=O)NC(C)(C)C(=O)N[C@@H](C)C(=O)N[C@@H](CCC(N)=O)C(=O)NC(C)(C)C(=O)N[C@@H](CCCCNC(=O)COCCOCCNC(=O)COCCOCCNC(=O)CC[C@H](NC(=O)CC[C@H](NC(=O)CCCCCCCCCCCCCCCCC(=O)O)C(=O)O)C(=O)O)C(=O)N[C@@H](Cc1ccccc1)C(=O)N[C@H](C(=O)N[C@@H](CC(N)=O)C(=O)N[C@@H](Cc1c[nH]c2ccccc12)C(=O)N[C@@H](CC(C)C)C(=O)N[C@@H](CC(C)C)C(=O)N[C@@H](C)C(=O)N[C@@H](CCC(N)=O)C(=O)N[C@@H](CCCNC(=N)N)C(N)=O)C(C)C)[C@@H](C)CC` [Compound 267] (H-[NMeY][Aib]EGTFISDYSI[Aib]LDR[Aib]AQ[Aib]K([AEEA-AEEA-γGlu-γGlu-C18 diacid])FVNWLLAQR-NH2) had a solubility (pH 7.4, aqueous buffer) of less than 6 mg/mL.

As for `CC[C@H](C)[C@H](NC(=O)[C@H](CO)NC(=O)[C@H](Cc1ccc(O)cc1)NC(=O)[C@H](CC(=O)O)NC(=O)[C@H](CO)NC(=O)[C@@H](NC(=O)[C@H](Cc1ccccc1)NC(=O)[C@@H](NC(=O)CNC(=O)[C@H](CCC(=O)O)NC(=O)C(C)(C)NC(=O)[C@@H](N)Cc1ccc(O)cc1)[C@@H](C)O)[C@@H](C)CC)C(=O)N[C@@H](C)C(=O)N[C@@H](CC(C)C)C(=O)N[C@@H](CC(=O)O)C(=O)N[C@@H](CCCCN)C(=O)NC(C)(C)C(=O)N[C@@H](CCCCNC(=O)COCCOCCNC(=O)COCCOCCNC(=O)CC[C@H](NC(=O)CCCCCCCCCCCCCCCCC(=O)O)C(=O)O)C(=O)N[C@@H](CCC(N)=O)C(=O)N[C@@H](C)C(=O)N[C@@H](CC(N)=O)C(=O)N[C@@H](Cc1ccccc1)C(=O)N[C@H](C(=O)N[C@@H](CCC(=O)O)C(=O)N[C@@H](Cc1c[nH]c2ccccc12)C(=O)N[C@@H](CC(C)C)C(=O)N[C@@H](CC(C)C)C(=O)N[C@@H](C)C(=O)N[C@@H](CCC(N)=O)C(=O)N[C@@H](CCCNC(=N)N)C(=O)NCC(=O)O)C(C)C` [Compound 163] (H-Y[Aib]EGTFISDYSIALDK[Aib]K([AEEA-AEEA-γGlu-C18 diacid])QANFVEWLLAQRG-OH), the solubility (pH 7.4) was not below 15 mg/mL and the solubility (pH 7.4, aqueous buffer) is not below 30 mg/mL.

On to `CC[C@H](C)[C@H](NC(=O)[C@H](CO)NC(=O)[C@H](Cc1ccc(O)cc1)NC(=O)[C@H](CC(=O)O)NC(=O)[C@H](CO)NC(=O)[C@@H](NC(=O)[C@H](Cc1ccccc1)NC(=O)[C@@H](NC(=O)CNC(=O)[C@H](CCC(=O)O)NC(=O)C(C)(C)NC(=O)[C@H](Cc1ccc(O)cc1)NC)[C@@H](C)O)[C@@H](C)CC)C(=O)N[C@@H](C)C(=O)N[C@@H](CC(C)C)C(=O)N[C@@H](CC(=O)O)C(=O)N[C@@H](CCCNC(=N)N)C(=O)N[C@@H](CCCCNC(=O)CNC(=O)CNC(=O)CNC(=O)CNC(=O)CNC(=O)CCCCCCCCCCCCCCCCC(=O)O)C(=O)N[C@@H](C)C(=O)N[C@@H](CCC(N)=O)C(=O)N[C@@H](CCC(N)=O)C(=O)N[C@@H](CC(=O)O)C(=O)N[C@@H](Cc1ccccc1)C(=O)N[C@H](C(=O)N[C@@H](CC(N)=O)C(=O)N[C@@H](Cc1c[nH]c2ccccc12)C(=O)N[C@@H](CC(C)C)C(=O)N[C@@H](CC(C)C)C(=O)N[C@@H](C)C(=O)N[C@@H](CCC(N)=O)C(=O)N[C@@H](CCCNC(=N)N)C(=O)N1CCC[C@H]1C(=O)N[C@@H](CO)C(=O)N[C@@H](CO)C(=O)NCC(=O)O)C(C)C` [Compound 288], for which the solubility (pH 7.4, aqueous buffer) is less than 6 mg/mL.
